The subject of experiment [1] is MOG-immunized mice developing chronic progressive EAE. Nature of the experiment: Acute onset EAE study, 28 days after EAE induction (Example 1). As to conditions: day 28; treatment from 3 weeks before EAE induction; clopidogrel oral, mecamylamine subcutaneous minipump; combination vs placebo p value less than 0.05. The format is in vivo, C57BL/6 mice.
The test system of experiment [2] is mouse EAE model (MOG35-55 immunization). Nature of the experiment: Mouse EAE model, acute oral treatment Day 14 to Day 28, global clinical score (Example 2). The experiment is classed as in vivo, C57L/6J female mice. As to conditions: Day 16 to Day 28 after immunization, 1/60 of usual therapeutic doses (clopidogrel hydrogen sulfate 270 μg/kg/day, mecamylamine hydrochloride 9 μg/kg/day), vs EAE mice without treatment.
Experimental: In this experiment, both drugs are equally diluted to ultra-low doses corresponding to 1/60 of their usual therapeutic doses, and importantly, both are administered orally. Protocols for EAE induction and clinical score calculations in this experiment are slightly modified and are described in detail below:
C57L/6J female mice (8 weeks old) are purchased from Janvier (France); after two weeks of habituation, female mice (10 weeks old) develop chronic paralysis after immunization with MOG (Myelin Oligodendrocyte Glycoprotein) peptide. The experimental encephalomyelitis is induced with the Hooke Kit MOG35-55/CFA Emulsion PTX (Pertussis toxin) for EAE Induction (EK-0110, EK-0115; Hooke laboratories). The control kit is CK-0115 (Hooke laboratories).
The day 0, two subcutaneous injections of 0.1 ml each are performed; one on upper back of the mouse and one in lower back. Each injection contains 100 μg of MOG35-55 peptide ([sequence]), 200 μg of inactivated Mycobacterium tuberculosis H37Ra and is emulsified in Complete Freund's adjuvant (CFA) (Hooke laboratories). The emulsion provides antigen needed to expand and differentiate MOG-specific autoimmune T cells. […]
The global score for each animal is determined by the addition of all the above mentioned categories. […]

Experiment [3] relates to MOG-immunized mice developing chronic progressive EAE. Nature of the experiment: Chronic phase EAE study, 70 days post EAE induction (Example 1). The format is in vivo, C57BL/6 mice. As to conditions: Manova p<0.005; initial mean weights of all groups equal.
Experimental: Prepare the emulsion containing MOG35-55 stock, PBS and CFA. The volume of MOG35-55 stock=[(The volume of the emulsion)×(1.5 g/L)]/[(3×10-3 mol/L)×(2581.6 g/mol)]; the volume of PBS=[(The volume of the emulsion)/2]−(The volume of MOG35-55 stock); The volume of CFA=(The volume of the emulsion)/2. The emulsion is prepared by diluting the MOG35-55 stock with PBS and then mix equal volumes of this diluent and CFA. The final concentration of MOG35-55 is 300 μg per 200 μL emulsion for each mouse. Air bubbles should be avoided and the syringe must be kept at 4° C. until injection. Before use the stability of the emulsion is tested by adding one drop into a beaker of water: if the drop remains as a solid clump and slowly dissipates, then the emulsion is stable and may be injected.
Mice are anesthetized with 2% Pentobarbital sodium (i.p injection, 70˜90 μL/mouse) and kept warm under infrared lamp. Injection of 200 ng Pertussis toxin in 200 μL PBS/mouse is performed (i.v.; tail vein) using a 1-mL syringe with 0.4-mm needle. The previously described emulsion is subcutaneously administered with a 1-mL syringe with 0.4-mm needle.
Mice are kept warm under infrared lamp to perform injection of 200 ng Pertussis toxin in 200 μL PBS via i.v. (tail vein) route, as described for MOG35-55 injection.
A chronic phase study is run for 70 days post EAE induction. […]

As for `COC(=O)[C@H](c1ccccc1Cl)N1CCc2sccc2C1` [clopidogrel], the “Histological examination: perivascular lymphocyte infiltrate inflammation (perivascular cuffing) in spinal section” value in experiment [1] is listed as “different degrees of perivascular inflammation”. The “Global clinical score (tail, hind limb, fore limb and bladder scores)” value in experiment [2] is “no positive effects”. Besides, the “Weight gain, Post Hoc comparison with control group treated with placebo (vehicle)” value in experiment [3] is reported as “different from the control group”.
In the same order, the values of `CNC1(C)C2CCC(C2)C1(C)C` (stereo not drawn) [mecamylamine] are “different degrees of perivascular inflammation”, “no positive effects” and “different from the control group”.

For the origin of these results see patent US8642566B2, “Therapeutic approaches for treating neuroinflammatory conditions” (Pharnext, priority 2009, dated 2014).
